Usually inhibition stands for the change of the read-out against control, counted positive when it falls. Usually IC50 stands for the midpoint of a concentration-inhibition curve.

In the first test the target is T1, Mitogen-activated protein kinase 14 (Homo sapiens, UniProt Q16539). Put plainly: Inhibition of p38alpha-mediated ATF2 phosphorylation at 10 uM in presence of ATP.
T1 sequence (Q16539 whole entry): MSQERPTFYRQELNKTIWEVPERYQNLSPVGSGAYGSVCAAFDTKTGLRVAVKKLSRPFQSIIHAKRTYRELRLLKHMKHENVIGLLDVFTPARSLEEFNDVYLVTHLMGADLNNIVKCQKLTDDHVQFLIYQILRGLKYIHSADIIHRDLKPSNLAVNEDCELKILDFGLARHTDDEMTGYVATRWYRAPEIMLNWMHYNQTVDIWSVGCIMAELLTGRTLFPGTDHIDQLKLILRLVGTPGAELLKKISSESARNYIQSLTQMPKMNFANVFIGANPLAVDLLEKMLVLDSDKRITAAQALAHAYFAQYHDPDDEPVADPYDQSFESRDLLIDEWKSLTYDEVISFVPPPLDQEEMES
For `COc1ccc2nc(-c3ccc(F)cc3)c(-c3ccncc3)nc2c1`, the inhibition was found to be 33%.
For the compound `Fc1ccc(-c2nc3cc(Cl)c(Cl)cc3nc2-c2ccncc2)cc1`, the inhibition is 39%.
For the compound `Fc1ccc(-c2nc3cc(Cl)c(Cl)cc3nc2-c2ccnc(NCc3ccccc3)c2)cc1`, the inhibition came out at 37%.
`Fc1ccc(-c2nc3cccnc3nc2-c2ccncc2)cc1`: the inhibition amounted to 46%.
On the same count and under the same terms, the figure for `Fc1ccc(-c2nc3ccccc3nc2-c2ccnc(NCc3ccccc3)c2)cc1` is 9%.

The target of a further test is Mitogen-activated protein kinase 10 (Homo sapiens, UniProt P53779). Put plainly: Inhibition of JNK3 by nonradioactive JNK3 assay.
Chain of Mitogen-activated protein kinase 10 (P53779 whole entry): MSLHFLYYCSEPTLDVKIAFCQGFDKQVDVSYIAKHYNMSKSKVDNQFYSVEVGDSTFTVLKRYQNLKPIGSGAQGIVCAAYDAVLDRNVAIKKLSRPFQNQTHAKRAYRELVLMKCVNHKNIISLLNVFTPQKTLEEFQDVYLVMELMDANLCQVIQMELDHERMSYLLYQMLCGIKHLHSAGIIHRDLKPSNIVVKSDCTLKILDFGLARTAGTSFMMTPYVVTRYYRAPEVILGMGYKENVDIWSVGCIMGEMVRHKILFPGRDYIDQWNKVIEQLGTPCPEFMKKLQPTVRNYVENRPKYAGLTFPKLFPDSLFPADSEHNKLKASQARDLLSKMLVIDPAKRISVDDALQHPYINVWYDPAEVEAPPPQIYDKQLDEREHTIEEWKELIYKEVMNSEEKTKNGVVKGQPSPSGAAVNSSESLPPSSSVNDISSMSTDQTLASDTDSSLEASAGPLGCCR
For the compound `CC(C)Nc1cc(-c2nc3ccccc3nc2-c2ccc(F)cc2)ccn1`, the IC50 was determined as 3950 nM.

The target in a further test is T1, Mitogen-activated protein kinase 14. Put plainly: Inhibition of p38alpha-mediated ATF2 phosphorylation in presence of ATP.
For `C[C@H](Nc1cc(-c2nc3ccccc3nc2-c2ccc(F)cc2)ccn1)c1ccccc1`, the IC50 came to 431 nM.
Regarding `Fc1ccc(-c2nc3ccccc3nc2-c2ccncc2)cc1`, the IC50 worked out at 3150 nM.
Regarding `CC(C)Nc1cc(-c2nc3cc(Cl)c(Cl)cc3nc2-c2ccc(F)cc2)ccn1`, the IC50 is 412 nM.
As to `C[C@@H](Nc1cc(-c2nc3ccccc3nc2-c2ccc(F)cc2)ccn1)c1ccccc1`, the IC50 was 4790 nM.
As for `Cc1cc2nc(-c3ccc(F)cc3)c(-c3ccnc(NC(C)C)c3)nc2cc1C`, the IC50 stood at 238 nM.
On to `CC(C)[C@@H](C)Nc1cc(-c2nc3ccccc3nc2-c2ccc(F)cc2)ccn1`, for which the IC50 amounted to 1590 nM.
`CC(Nc1cc(-c2nc3ccccc3nc2-c2ccc(F)cc2)ccn1)c1ccccc1` (stereo not given): the IC50 was found to be 720 nM.
As for `CC(C)C(C)Nc1cc(-c2nc3ccccc3nc2-c2ccc(F)cc2)ccn1` (stereo not given), the IC50 stood at 790 nM.
`Cc1cc2nc(-c3ccc(F)cc3)c(-c3ccnc(NCc4ccccc4)c3)nc2cc1C`: the IC50 came out at 1530 nM.
In the case of `CCC(C)Nc1cc(-c2nc3ccccc3nc2-c2ccc(F)cc2)ccn1` (stereo not given), the IC50 worked out at 114 nM.
Turning to `CC(C)[C@H](C)Nc1cc(-c2nc3ccccc3nc2-c2ccc(F)cc2)ccn1`, the IC50 was 576 nM.
On the same count and under the same terms, the value for `CC(C)C(C)Nc1cc(-c2nc3cc(Cl)c(Cl)cc3nc2-c2ccc(F)cc2)ccn1` (stereo not given) was 9460 nM; that for `COc1ccc2nc(-c3ccncc3)c(-c3ccc(F)cc3)nc2c1` was 6140 nM.
`CCC(C)Nc1cc(-c2nc3cc(C)c(C)cc3nc2-c2ccc(F)cc2)ccn1` (stereo not given): the IC50 was 595 nM.
On to `Cc1cc2nc(-c3ccc(F)cc3)c(-c3ccnc(NC(C)C(C)C)c3)nc2cc1C` (stereo not given), for which the IC50 was 1380 nM.
In the case of `O[C@H]1CC[C@H](Nc2cc(-c3nc4cc(Cl)c(Cl)cc4nc3-c3ccc(F)cc3)ccn2)CC1`, the IC50 was 608 nM.
Regarding `CC(C)CNc1cc(-c2nc3ccccc3nc2-c2ccc(F)cc2)ccn1`, the IC50 was found to be 642 nM.
Still for that read-out and setting: the figure for `Cc1cc2nc(-c3ccncc3)c(-c3ccc(F)cc3)nc2cc1C` is 3700 nM; for `Fc1ccc(-c2nc3ncccc3nc2-c2ccncc2)cc1` it is 3190 nM; for `O[C@H]1CC[C@H](Nc2cc(-c3nc4ccccc4nc3-c3ccc(F)cc3)ccn2)CC1` it is 211 nM.
In the case of `Cc1cc2nc(-c3ccc(F)cc3)c(-c3ccnc(N[C@H]4CC[C@H](O)CC4)c3)nc2cc1C`, the IC50 stood at 259 nM.
Turning to `CC(C)Nc1cc(-c2nc3ccccc3nc2-c2ccc(F)cc2)ccn1`, the IC50 stood at 81 nM.
Regarding `CC(C)Nc1cc(-c2nc3cccnc3nc2-c2ccc(F)cc2)ccn1`, the IC50 was found to be 38 nM.
As to `CC(C)Nc1cc(-c2nc3ncccc3nc2-c2ccc(F)cc2)ccn1`, the IC50 is 333 nM.

Source of the values: ChEMBL document CHEMBL1156828, “Pyridinylquinoxalines and pyridinylpyridopyrazines as lead compounds for novel p38 alpha mitogen-activated protein kinase inhibitors” (J Med Chem, 2010).
